Patent publication US8741897B2, “Glucocorticoid mimetics, methods of making them, pharmaceutical compositions and uses thereof” (Boehringer Ingelheim Pharmaceuticals Inc., priority 2003, dated 2014)

Legend:
[1] = tested on: glucocorticoid receptor function; assay: one or more of the above assays (GR binding and glucocorticoid receptor cell assays: aromatase, IL-6, TAT, MMTV-Luc, IL-8, ICAM-Luc); type: cell-based; details: assay not specified per compound
[2] = tested on: Human osteosarcoma MG-63 cells; assay: Inhibition of osteocalcin production from osteoblast cell line MG-63; type: cell-based; details: Vitamin D 10 nM, 48 hours
Description: 7. Inhibition of Osteocalcin Production from Osteoblast Cell Line MG-63
The next day, wells are replaced with fresh media. Cells are treated with Vitamin D (Sigma, Cat. No. D1530) to a final concentration of 10 nM, and with the test compounds in concentrations of 10^−6 M to 10^−9 M, in a total volume of 200 μL per well. Samples are done in duplicates. […] Positive control wells receive Vitamin D only, without compounds, and represent maximum (100%) amount of osteocalcin production. Plates are incubated at 37° C. incubator for 48 hours and supernatants are harvested at the end of incubation. Amounts of osteocalcin in the supernatants are determined by the Glype osteocalcin ELISA kit (Zymed, Cat. No. 99-0054) according to manufacture's protocol. Inhibition of osteocalcin by test compounds is expressed in percentage relative to positive controls. IC50 values of the test compounds are derived by non-lineal curve fitting.

[3] = biological target: T1, human glucocorticoid receptor (GR) complex (Homo sapiens, UniProt P04150); assay: Glucocorticoid receptor competitive binding assay (fluorescence polarization, TAMRA-labeled dexamethasone probe); details: compounds of Formula (IA)
T1 construct: made in house; host or cells: insect expression system (baculovirus lysate)
T1 sequence (P04150 1-777): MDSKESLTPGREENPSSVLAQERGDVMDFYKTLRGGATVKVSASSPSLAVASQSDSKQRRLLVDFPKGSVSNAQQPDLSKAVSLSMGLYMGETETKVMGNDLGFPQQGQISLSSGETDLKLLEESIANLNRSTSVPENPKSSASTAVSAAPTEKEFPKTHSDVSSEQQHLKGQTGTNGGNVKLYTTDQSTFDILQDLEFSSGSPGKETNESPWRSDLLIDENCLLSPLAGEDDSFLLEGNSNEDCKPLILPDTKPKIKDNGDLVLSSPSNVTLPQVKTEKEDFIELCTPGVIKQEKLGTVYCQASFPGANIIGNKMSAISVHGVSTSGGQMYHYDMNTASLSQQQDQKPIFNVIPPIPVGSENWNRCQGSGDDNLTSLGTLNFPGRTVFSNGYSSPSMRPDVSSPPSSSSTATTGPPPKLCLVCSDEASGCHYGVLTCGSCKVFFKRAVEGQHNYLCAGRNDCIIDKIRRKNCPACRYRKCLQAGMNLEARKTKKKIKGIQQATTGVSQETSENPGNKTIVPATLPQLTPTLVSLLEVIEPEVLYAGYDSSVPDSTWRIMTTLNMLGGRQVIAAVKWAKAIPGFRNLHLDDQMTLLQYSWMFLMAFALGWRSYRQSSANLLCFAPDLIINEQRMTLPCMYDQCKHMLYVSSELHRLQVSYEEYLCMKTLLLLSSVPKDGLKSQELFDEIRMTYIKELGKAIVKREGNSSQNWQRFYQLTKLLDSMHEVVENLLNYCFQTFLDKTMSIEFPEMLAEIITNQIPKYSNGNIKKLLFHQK
How it was run: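 Fluorescence-polarization competition against 15 nM TAMRA-dexamethasone (stock added to the mix) for human GR complex from baculovirus lysate diluted 1:170. Buffer: 10 mM TES, 50 mM KCl, 20 mM Na2MoO4, 1.5 mM EDTA, 0.04% CHAPS, 10% glycerol, 1 mM DTT, pH 7.4. IC50 from 4-parameter logistic fit.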

Row | Structure (SMILES) | activity as agonists of the glucocorticoid receptor function in one or more of the above assays [1] | inhibit the vitamin D stimulated production of osteocalcin [2] | activity in the GR binding assay [3]
1 | CN(C)c1cc2cc(CC(O)(CC(C)(C)c3cc(F)ccc3O)C(F)(F)F)[nH]c2cn1 (stereo not shown) [2-[3-(5-Dimethylamino-1H-pyrrolo[2,3-c]pyridin-2-ylmethyl)-4,4,4-trifluoro-3-hydroxy-1,1-dimethylbutyl]-4-fluorophenol] | potent agonists | inhibit | 
2 | Cc1ccc(F)cc1C(C)(C)CC(O)(Cc1cc2cc(N3CCCCC3)ncc2[nH]1)C(F)(F)F (stereo not shown) [1,1,1-Trifluoro-4-(5-fluoro-2-methylphenyl)-4-methyl-2-(5-piperidin-1-yl-1H-pyrrolo[2,3-c]pyridin-2-ylmethyl)pentan-2-ol] |  | inhibit | 
3 | Cc1c(CC(O)(CC(C)(C)c2cc(-c3cncnc3)cc3c2OCC3)C(F)(F)F)[nH]c2cnccc12 (stereo not shown) [1,1,1-Trifluoro-4-methyl-2-(3-methyl-1H-pyrrolo[2,3-c]pyridin-2-ylmethyl)-4-(5-pyrimidin-5-yl-2,3-dihydrobenzofuran-7-yl)pentan-2-ol] | potent agonists | inhibit | 
4 | CC(C)(CC(O)(Cc1cc2cc(N3CCCCC3)ncc2[nH]1)C(F)(F)F)c1cc(S(C)(=O)=O)cc2c1OCC2 (stereo not shown) [1,1,1-Trifluoro-4-(5-methanesulfonyl-2,3-dihydrobenzofuran-7-yl)-4-methyl-2-(5-piperidin-1-yl-1H-pyrrolo[2,3-c]pyridin-2-ylmethyl)pentan-2-ol] | potent agonists | inhibit | 
5 | CCN(C)c1cc2cc(CC(O)(CC(C)(C)c3cc(Cl)cc4c3OCC4)C(F)(F)F)[nH]c2cn1 (stereo not shown) [4-(5-Chloro-2,3-dihydrobenzofuran-7-yl)-2-[5-(ethylmethylamino)-1H-pyrrolo[2,3-c]pyridin-2-ylmethyl]-1,1,1-trifluoro-4-methylpentan-2-ol] | potent agonists | inhibit | 
6 | CC(C)(CC(O)(Cc1cc2cc(-c3cccnc3)ccc2[nH]1)C(F)(F)F)c1cc(F)cc2c1OCC2 (stereo not shown) |  | inhibit | 
7 | Cc1ccc(F)cc1C(C)(C)CC(O)(Cc1cc2cc(N3CCOCC3)ncc2[nH]1)C(F)(F)F (stereo not shown) [1,1,1-Trifluoro-4-(5-fluoro-2-methylphenyl)-4-methyl-2-(5-morpholin-4-yl-1H-pyrrolo[2,3-c]pyridin-2-ylmethyl)pentan-2-ol] |  | inhibit | 
8 | Cc1cc(C)c(O)c(C(C)(C)CC(O)(Cc2[nH]c3ccccc3c2C#N)C(F)(F)F)c1 (stereo not shown) [2-[2-Hydroxy-4-(2-hydroxy-3,5-dimethylphenyl)-4-methyl-2-trifluoromethylpentyl]-1H-indole-3-carbonitrile] | potent agonists |  | potent activity
9 | COc1ccc(F)cc1C(C)(C)CC(O)(Cc1cc2ccncc2s1)C(F)(F)F (stereo not shown) [1,1,1 -Trifluoro-4-(5-fluoro-2-methoxyphenyl)-4-methyl-2-thieno[2,3-c]pyridin-2-ylmethylpentan-2-ol] | potent agonists |  | potent activity
10 | Cc1cccc(C)c1C(C)(C)CC(O)(Cc1cc2ccccc2[nH]1)C(F)(F)F (stereo not shown) [4-(2,6-Dimethylphenyl)-1,1,1-trifluoro-2-(1H-indol-2-ylmethyl)-4-methylpentan-2-ol] | potent agonists |  | potent activity
11 | CN(C)C(=O)c1ccc2[nH]c(CC(O)(CC(C)(C)c3cc(Br)cc4c3OCC4)C(F)(F)F)cc2c1 (stereo not shown) [2-[4-(5-Bromo-2,3-dihydrobenzofuran-7-yl)-2-hydroxy-4-methyl-2-trifluoromethylpentyl]-1H-indole-5-carboxylic acid dimethylamide] | potent agonists |  | potent activity
12 | COc1ccc(C)cc1C(C)(C)CC(O)(Cc1cc2ccccc2[nH]1)C(F)(F)F (stereo not shown) [1,1,1-Trifluoro-2-(1H-indol-2-ylmethyl)-4-(2-methoxy-5-methylphenyl)-4-methylpentan-2-ol] | potent agonists |  | potent activity
13 | COc1ccc(F)cc1C(C)(C)CC(O)(Cc1cc(Cl)nc(Cl)c1C#N)C(F)(F)F (stereo not shown) [2,6-Dichloro-4-[4-(5-fluoro-2-methoxyphenyl)-2-hydroxy-4-methyl-2-trifluoromethylpentyl]nicotinonitrile] | potent agonists |  | potent activity
14 | CC(C)(CC(O)(Cc1cc2ccccc2[nH]1)C(F)(F)F)c1cc(F)ccc1OC(F)F (stereo not shown) [4-(2-Difluoromethoxy-5-fluorophenyl)-1,1,1-trifluoro-2-(1H-indol-2-ylmethyl)-4-methylpentan-2-ol] | potent agonists |  | potent activity
15 | CC(C)(CC(O)(Cc1cc2cnccc2[nH]1)C(F)(F)F)c1cc(F)cc2c1OCC2 (stereo not shown) [1,1,1-Trifluoro-4-(5-fluoro-2,3-dihydrobenzofuran-7-yl)-4-methyl-2-(1H pyrrolo[3,2-c]pyridin-2-ylmethyl)pentan-2-ol] | potent agonists |  | potent activity
16 | Cc1cc2c(c(C(C)(C)CC(O)(Cc3cc4cnccc4[nH]3)C(F)(F)F)c1)OCC2 (stereo not shown) [1,1,1-Trifluoro-4-methyl-4-(5-methyl-2,3-dihydrobenzofuran-7-yl)-2-(1H-pyrrolo[3,2-c]pyridin-2-ylmethyl)pentan-2-ol] | potent agonists |  | potent activity
17 | CN(C)Cc1cccc(C(C)(C)CC(O)(Cc2cc3cc(C#N)ccc3[nH]2)C(F)(F)F)c1 (stereo not shown) [2-[4-(3-Dimethylaminomethylphenyl)-2-hydroxy-4-methyl-2-trifluoromethylpentyl]-1H-indole-5-carbonitrile] | potent agonists |  | potent activity
18 | COc1ccc(F)cc1C(C)(C)CC(O)(Cc1cc2cc(C(=O)N3CCCC3)ccc2[nH]1)C(F)(F)F (stereo not shown) [{2-[4-(5-Fluoro-2-methoxyphenyl)-2-hydroxy-4-methyl-2-trifluoromethylpentyl]-1H-indol-5-yl}pyrrolidin-1-ylmethanone] | potent agonists |  | potent activity
19 | Cc1ccc(C)c(C(C)(C)CC(O)(Cc2cc3ccccc3[nH]2)C(F)(F)F)c1 (stereo not shown) [4-(2,5-Dimethylphenyl)-1,1,1-trifluoro-2-(1H-indol-2-ylmethyl)-4-methylpentan-2-ol] | potent agonists |  | potent activity
20 | COc1ccc(F)cc1C(C)(C)CC(O)(Cc1cc2cc(C(N)=O)ccc2[nH]1)C(F)(F)F (stereo not shown) [2-[4-(5-Fluoro-2-methoxyphenyl)-2-hydroxy-4-methyl-2-trifluoromethylpentyl]-1H-indole-5-carboxylic acid amide] | potent agonists |  | potent activity
